Results from ChEMBL document CHEMBL1817663, “A synthetic antimicrobial peptidomimetic (LTX 109): stereochemical impact on membrane disruption” (J Med Chem, 2011).
Values after ≈ are worked out from the molar mass of the structure shown.

Tests used:
[1] = test system: Escherichia coli; test: Antibacterial activity against Escherichia coli ATCC 25922; type: functional
[2] = test system: Pseudomonas aeruginosa; test: Antibacterial activity against Pseudomonas aeruginosa ATCC 27853; type: functional
[3] = test system: Staphylococcus aureus; test: Antibacterial activity against Staphylococcus aureus ATCC 25923; type: functional
[4] = Toxicity in human erythrocytes assessed as hemolytic activity; type: cell-based, Erythrocyte; details: read-out: HD50 (the source's name)

CC(C)(C)c1cc(C(C)(C)C)c2[nH]c(C(C)(C)C)c(C[C@@H](NC(=O)[C@@H](N)CCCNC(=N)N)C(=O)N[C@H](CCCNC(=N)N)C(=O)NCCc3ccccc3)c2c1
MIC [1]: 4 µg/mL (≈ 5.08 µM)
MIC [2]: 8 µg/mL (≈ 10.2 µM)
MIC [3]: 2 µg/mL (≈ 2.54 µM)
HC50 [4]: 135 µg/mL

CC(C)(C)c1cc(C(C)(C)C)c2[nH]c(C(C)(C)C)c(C[C@@H](NC(=O)[C@H](N)CCCNC(=N)N)C(=O)N[C@@H](CCCNC(=N)N)C(=O)NCCc3ccccc3)c2c1
MIC [1]: 10 µg/mL (≈ 12.7 µM)
MIC [2]: 50 µg/mL (≈ 63.4 µM)
MIC [3]: 4 µg/mL (≈ 5.08 µM)
HC50 [4]: 605 µg/mL

CC(C)(C)c1cc(C(C)(C)C)c2[nH]c(C(C)(C)C)c(C[C@@H](NC(=O)[C@H](N)CCCNC(=N)N)C(=O)N[C@H](CCCNC(=N)N)C(=O)NCCc3ccccc3)c2c1
MIC [1]: 3 µg/mL (≈ 3.81 µM)
MIC [2]: 8 µg/mL (≈ 10.2 µM)
MIC [3]: 3 µg/mL (≈ 3.81 µM)
HC50 [4]: 120 µg/mL

CC(C)(C)c1cc(C(C)(C)C)c2[nH]c(C(C)(C)C)c(C[C@H](NC(=O)[C@@H](N)CCCNC(=N)N)C(=O)N[C@@H](CCCNC(=N)N)C(=O)NCCc3ccccc3)c2c1 [LTX-109]
MIC [1]: 3 µg/mL (≈ 3.81 µM)
MIC [2]: 8 µg/mL (≈ 10.2 µM)
MIC [3]: 2 µg/mL (≈ 2.54 µM)
HC50 [4]: 175 µg/mL

CC(C)(C)c1cc(C(C)(C)C)c2[nH]c(C(C)(C)C)c(C[C@@H](NC(=O)[C@@H](N)CCCNC(=N)N)C(=O)N[C@@H](CCCNC(=N)N)C(=O)NCCc3ccccc3)c2c1
MIC [1]: 9 µg/mL (≈ 11.4 µM)
MIC [2]: 30 µg/mL (≈ 38.1 µM)
MIC [3]: 3 µg/mL (≈ 3.81 µM)
HC50 [4]: 510 µg/mL

CC(C)(C)c1cc(C(C)(C)C)c2[nH]c(C(C)(C)C)c(C[C@H](NC(=O)[C@@H](N)CCCNC(=N)N)C(=O)N[C@H](CCCNC(=N)N)C(=O)NCCc3ccccc3)c2c1
MIC [1]: 10 µg/mL (≈ 12.7 µM)
MIC [2]: 50 µg/mL (≈ 63.4 µM)
MIC [3]: 3 µg/mL (≈ 3.81 µM)
HC50 [4]: 535 µg/mL

CC(C)(C)c1cc(C(C)(C)C)c2[nH]c(C(C)(C)C)c(C[C@H](NC(=O)[C@H](N)CCCNC(=N)N)C(=O)N[C@@H](CCCNC(=N)N)C(=O)NCCc3ccccc3)c2c1
MIC [1]: 3 µg/mL (≈ 3.81 µM)
MIC [2]: 10 µg/mL (≈ 12.7 µM)
MIC [3]: 2 µg/mL (≈ 2.54 µM)
HC50 [4]: 175 µg/mL

CC(C)(C)c1cc(C(C)(C)C)c2[nH]c(C(C)(C)C)c(C[C@H](NC(=O)[C@H](N)CCCNC(=N)N)C(=O)N[C@H](CCCNC(=N)N)C(=O)NCCc3ccccc3)c2c1
MIC [1]: 7 µg/mL (≈ 8.88 µM)
MIC [2]: 50 µg/mL (≈ 63.4 µM)
MIC [3]: 3 µg/mL (≈ 3.81 µM)
HC50 [4]: 600 µg/mL
